Laboratory results reported in patent publication US5336485A, “Method for protecting animals against tacrine induced cytotoxic injury using sterol compounds” (priority 1993, dated 1994).
Structures can show the parent of a compound that is named as a salt. Where two headings read alike, the source gives them in different places.

How the values were obtained:
liver = test: CCl4 induced hepatotoxicity in rats (serum AST/ALT); format: in vivo, rat; conditions: for protection against CCl4 hepatotoxicity (in words): rats, serum enzyme levels
Procedure: In vivo experiments were performed to determine if alpha-TS administration protects the liver from chemical toxicity. The liver is the target organ for CCl4. CCl4 is a hepatotoxic agent that induces centrilobular liver necrosis through its metabolism to free radicals. Male Sprague-Dawley rats were given an intraperitoneal dose (100 mg/kg) of a tocopherol analog 24 hours prior to a CCl4 challenge (2.9g/kg given by oral garage). Forty eight hours after the challenge, the rats were sacrificed and the levels of aspartate aminotransferase (AST) and alanine aminotransferase (ALT) were measured.
As discussed above, SGOT levels provide a clinical assessment of hepatotoxicity (liver damage).
Succinate analogs were administered to male Sprague-Dawley rats 20 hours prior to a 1 g CCl4 /kg body weight oral challenge and the AST and ALT serum enzyme levels were measured 48 hours after the challenge.
Similar to the experiments were described above, the ionizable congeners were administered to Sprague-Dawley rats by i.p. injection of a 100 mg ionizable congener/kg body weight dose 20 hours prior to oral administration of a 1 g/kg dose of CCl4, and the AST and ALT levels were measured 48 hours after the CCl4 challenge.

male Sprague-Dawley rats = test: CCl4 induced lethality in rats; format: in vivo, rat; conditions: 1 g/kg
Procedure: The in vivo effect of alpha-TS was tested by administering a lethal oral dose of carbon tetrachloride (CC14) to male Sprague-Dawley rats.
In the experiment described in Table 3, a single dose of alpha-TS dissolved in peanut oil:ethanol (3:2) was given to male Sprague-Dawley rats. The dose was given 24 hours prior to an orally administered CCl4 challenge dissolved in peanut oil. Two to nine animals were tested per treatment. The control group comprised rats pretreated with the vehicle only. Survival was monitored for at least 7 days after the toxic insult.
In vivo experiments were performed to determine if the time the ionizable tocopherol analog (alpha-TS) is administered affects the cytoprotective functions. Male Sprague-Dawley rats were given a 100 mg/kg intraperitoneal dose of a tocopherol or succinate analog and were given a lethal dose of CCl4 (2.9g/kg by oral gavage). Table 7 contrasts the times of administration of the tocopherol or succinate analog and the times of administration of the lethal dose of CCl4 with the survival of the rats in the study (3to 6 rats per protective treatment).
Several tocopherol and succinate analogs were tested for CCl4 induced lethality. A single dose of the tocopherol or succinate analog was administered twenty four hours prior to orally administering 2.9 g CCl4 /kg body weight. Three to six animals were analyzed per treatment. The rats were monitored for seven days. […]

[1] = 100 mg/kg ip, 48 h after 1 g/kg CCl4 (Table 31)
[2] = 100 mg/kg ip, 48 h after 1 g/kg CCl4 (Table 33)
[3] = Rattus norvegicus, ip, 48 h, read-out: % Hepatoprotection
[4] = 100 mg/kg ip, PEG 400 vehicle, 48 h after 1 g/kg CCl4 (Table 34)
[5] = 100 mg/kg ip, peanut oil vehicle, 48 h after 1 g/kg CCl4 (Table 39)
[6] = 100 mg/kg ip, 48 h after 1 g/kg CCl4 (Table 37)
[7] = 20 h prior, 48 h after 1 g/kg CCl4 (Table 36)
[8] = 100 mg/kg ip, 48 h after 1 g/kg CCl4 (Table 38)
[9] = 100 mg/kg ip, 48 h after 1 g/kg CCl4 (Table 40)
[10] = 100 mg/kg ip, 48 h after 1 g/kg CCl4 (Table 42)
[11] = Rattus norvegicus, 100 mg/kg ip 20 h prior, 48 h after 1 g/kg CCl4, read-out: % Hepatoprotection
[12] = 100 mg/kg ip (dihydrocholesterol 80 + sodium sulfate 30 mg/kg), 48 h after 1 g/kg CCl4 (Table 35)
[13] = 50 mg/kg ip, 48 h after 1 g/kg CCl4 (Table 41)

## CC(=O)O[C@H]1CC[C@@]2(C)C(=CC[C@H]3[C@@H]4CC[C@H]([C@H](C)CCCC(C)C)[C@@]4(C)CC[C@@H]32)C1 [Cholesterol acetate, reference compound]
liver; [1]
  ALT: 0.96 ± 0.32 10^3 units/L
  AST: 3.06 ± 1.06 10^3 units/L
liver
  protection against CCl4 hepatotoxicity (in words): provided no protection

## CC(C)CCC[C@@H](C)[C@H]1CC[C@H]2[C@@H]3CC=C4C[C@@H](OS(=O)(=O)O)CC[C@]4(C)[C@H]3CC[C@]12C [Cholesteryl 3-sulfate, sodium salt]
liver; [2]
  ALT: 0.240 ± .133 10^3 units/L
  AST: 0.86 ± 0.35 10^3 units/L
liver; [3]
  inhibition in vivo at 100 mg/kg: 90%
liver
  protection against CCl4 hepatotoxicity (in words): potent cytoprotective agents in vivo

## CC(C)CCC[C@@H](C)[C@H]1CC[C@H]2[C@@H]3CC=C4C[C@@H](OC(=O)c5ccccc5C(=O)O)CC[C@]4(C)[C@H]3CC[C@]12C [Cholesteryl hydrogen phthalate]
liver; [4]
  ALT: 0.06 ± 0.03 10^3 units/L
  AST: 0.30 ± 0.12 10^3 units/L
liver; [3]
  inhibition in vivo at 100 mg/kg: 100%
liver
  protection against CCl4 hepatotoxicity (in words): potent cytoprotective agents in vivo

## C[C@]12CC[C@H](OC(=O)CCC(=O)O)CC1=CC[C@@H]1[C@@H]2CC[C@]2(C)C(=O)CC[C@@H]12 [Dehydroepiandosterone 3-succinate]
liver; [5]
  ALT: 3.89 ± 1.77 10^3 units/L
  AST: 10.42 ± 3.36 10^3 units/L
liver; [3]
  inhibition in vivo at 100 mg/kg: 0%

## C[C@]12CC[C@H](OS(=O)(=O)O)CC1=CC[C@@H]1[C@@H]2CC[C@]2(C)C(=O)CC[C@@H]12 [Dehydroepiandosterone 3-sulfate]
liver; [4]
  ALT: 3.89 ± 0.81 10^3 units/L
  AST: 13.85 ± 0.37 10^3 units/L
liver; [3]
  inhibition in vivo at 100 mg/kg: 4%

## CC(C)CCC[C@@H](C)[C@H]1CC[C@H]2[C@@H]3CC[C@H]4C[C@@H](OC(=O)CCC(=O)O)CC[C@]4(C)[C@H]3CC[C@]12C [Dihydrocholesterol succinate, tris salt]
liver; [6]
  ALT: 0.09 ± 0.03 10^3 units/L
  AST: 0.19 ± 0.05 10^3 units/L
liver; [3]
  inhibition in vivo at 100 mg/kg: 100%

## CC(C)CCC[C@@H](C)[C@H]1CC[C@H]2[C@@H]3CC[C@H]4C[C@@H](OC(=O)CCC(=O)O)CC[C@]4(C)[C@H]3CC[C@]12C [Dihydrocholesterol succinate]
liver; [7]
  ALT: 0.39 ± 0.40 10^3 units/L
  AST: 0.44 ± 0.29 10^3 units/L
liver
  protection against CCl4 hepatotoxicity (in words): complete protection against hepatotoxicity

## CC(C)[C@@H](C)/C=C/[C@@H](C)[C@H]1CC[C@H]2C3=CC=C4C[C@@H](OC(=O)CCC(=O)O)CC[C@]4(C)[C@H]3CC[C@]12C [Ergosterol succinate, tris salt]
liver; [8]
  ALT: 0.46 ± 0.25 10^3 units/L
  AST: 0.80 ± 0.28 10^3 units/L
liver; [3]
  inhibition in vivo at 100 mg/kg: 80%
liver
  protection against CCl4 hepatotoxicity (in words): protection against hepatotoxicity

## CC(C)[C@@H](C)/C=C/[C@@H](C)[C@H]1CC[C@H]2C3=CC=C4C[C@@H](OS(=O)(=O)O)CC[C@]4(C)[C@H]3CC[C@]12C [Ergosterol sulfate, potassium salt]
liver; [8]
  ALT: 0.28 ± 0.37 10^3 units/L
  AST: 0.58 ± 0.53 10^3 units/L
liver; [3]
  inhibition in vivo at 100 mg/kg: 86%
liver
  protection against CCl4 hepatotoxicity (in words): protection against hepatotoxicity

## CC(C)[C@@H](C)/C=C/[C@@H](C)[C@H]1CC[C@H]2C3=CC=C4C[C@@H](O)CC[C@]4(C)[C@H]3CC[C@]12C [Ergosterol, reference compound]
liver; [8]
  ALT: 0.93 ± 0.48 10^3 units/L
  AST: 1.73 ± 0.58 10^3 units/L
liver; [5]
  ALT: 0.63 ± 0.45 10^3 units/L
  AST: 1.90 ± 0.73 10^3 units/L
liver
  protection against CCl4 hepatotoxicity (in words): cytoprotection from toxic CCl4 insults

## C[C@]12CC[C@@H]3c4ccc(OC(=O)CCC(=O)O)cc4CC[C@H]3[C@@H]1CCC2=O [Estrone 3-Succinate]
liver; [9]
  ALT: 0.51 ± 0.56 10^3 units/L
  AST: 1.71 ± 1.00 10^3 units/L
liver; [10]
  ALT: 0.32 ± 0.12 10^3 units/L
  AST: 0.70 ± 0.20 10^3 units/L
liver
  protection against CCl4 hepatotoxicity (in words): slight cytoprotection

## CC(=O)Oc1ccc2c(c1)CCC1C2CC[C@]2(C)C(=O)CCC12 (some centres unmarked) [Estrone Acetate, reference compound]
liver; [10]
  ALT: 0.18 ± 0.08 10^3 units/L
  AST: 0.53 ± 0.24 10^3 units/L

## C[C@]12CC[C@@H]3c4ccc(OS(=O)(=O)O)cc4CC[C@H]3[C@@H]1CCC2=O [Estrone sulfate, potassium salt]
liver; ip, 100 mg/kg, 48 h
  ALT: 0.87 ± 0.59 10^3 units/L
  AST: 4.19 ± 2.75 10^3 units/L
liver
  protection against CCl4 hepatotoxicity (in words): slight cytoprotection

## C[C@]12CC[C@@H]3c4ccc(O)cc4CC[C@H]3[C@@H]1CCC2=O [Estrone, reference compound]
liver; [10]
  ALT: 0.33 ± 0.30 10^3 units/L
  AST: 0.56 ± 0.45 10^3 units/L

## C[C@]12CCC(=O)C=C1CC[C@@H]1[C@@H]2[C@@H](O)C[C@@]2(C)[C@H]1CC[C@]2(O)C(=O)COC(=O)CCC(=O)O [Hydrocortisone 21-succinate, reference compound]
liver; [2]
  ALT: 1.596 ± 0.887 10^3 units/L
  AST: 6.18 ± 3.15 10^3 units/L
liver; [11]
  inhibition in vivo at 100 mg/kg: 25%
liver
  protection against CCl4 hepatotoxicity (in words): no cytoprotection was observed

## CCCCCCCCCCCCOS(=O)(=O)[O-].[Na+] [Lauryl sulfate, sodium salt]
liver; [9]
  ALT: 1.40 ± 0.59 10^3 units/L
  AST: 5.00 ± 1.54 10^3 units/L
liver; [3]
  inhibition in vivo at 100 mg/kg: 26%
liver
  protection against CCl4 hepatotoxicity (in words): generally not protective

## CCCCC/C=C\C/C=C\CCCCCCCCO [Linoleyl alcohol, reference compound]
liver; [12]
  ALT: 5.45 ± 1.10 10^3 units/L
  AST: 15.60 ± 2.98 10^3 units/L
liver
  protection against CCl4 hepatotoxicity (in words): potentiates CCl4 toxicity

## CCCCC/C=C\C/C=C\CCCCCCCCOC(=O)CCC(=O)O [Linoleyl succinate]
liver; [12]
  ALT: 1.44 ± 0.59 10^3 units/L
  AST: 4.47 ± 2.21 10^3 units/L
liver; [5]
  ALT: 1.95 ± 0.84 10^3 units/L
  AST: 5.60 ± 1.30 10^3 units/L
liver; [11]
  inhibition in vivo at 100 mg/kg: 46%

## CCCCCCCCCCCCCCCCO [Palmityl Alcohol, reference compound]
liver; [2]
  ALT: 1.840 ± 1.106 10^3 units/L
  AST: 8.70 ± 3.00 10^3 units/L
liver
  protection against CCl4 hepatotoxicity (in words): generally not protective

## CCCCCCCCCCCCCCCCOC(=O)CCC(=O)O [Palmityl succinate]
liver; [2]
  ALT: 1.679 ± 0.881 10^3 units/L
  AST: 6.54 ± 3.61 10^3 units/L
liver; [11]
  inhibition in vivo at 100 mg/kg: 22%

## C/C(=C\COC(=O)CCC(=O)O)CCCC(C)CCCC(C)CCCC(C)C (centres unmarked) [Phytol succinate]
liver; [6]
  ALT: 1.70 ± 0.18 10^3 units/L
  AST: 3.29 ± 0.51 10^3 units/L
liver; [11]
  inhibition in vivo at 100 mg/kg: 27%
liver
  protection against CCl4 hepatotoxicity (in words): generally not protective

## C/C(=C\CO)CCC[C@H](C)CCC[C@H](C)CCCC(C)C [Phytol, reference compound]
liver; [6]
  ALT: 2.82 ± 0.54 10^3 units/L
  AST: 4.71 ± 1.00 10^3 units/L
liver
  protection against CCl4 hepatotoxicity (in words): generally not protective

## CC1=C(/C=C/C(C)=C/C=C/C(C)=C/C(=O)O)C(C)(C)CCC1 [Retinoic acid, reference compound]
liver; [13]
  ALT: 6.14 ± 0.74 10^3 units/L
  AST: 17.94 ± 0.71 10^3 units/L
liver; Rattus norvegicus, 50 mg/kg ip 20 h prior, 48 h after 1 g/kg CCl4, read-out: % Hepatoprotection
  inhibition in vivo at 50 mg/kg: -83%
liver
  protection against CCl4 hepatotoxicity (in words): potentiated CCl4 toxicity

## O=C(O)CCC(=O)O [Succinic Acid, Na Salt, reference compound]
Male Sprague-Dawley rats; 24 hours or 1 hour prior and daily thereafter
  Days Survived after CCl4: 2 days
Male Sprague-Dawley rats; single dose 24 h prior, CCl4 […]
  Days Survived After CCl4 Treatment: 2 days
